These results are taken from PMC13147306 (The Febs Journal, 2025).

One assay deals with T1, DnrK (Streptomyces peucetius, UniProt Q06528).
T1 sequence (Q06528 1-356): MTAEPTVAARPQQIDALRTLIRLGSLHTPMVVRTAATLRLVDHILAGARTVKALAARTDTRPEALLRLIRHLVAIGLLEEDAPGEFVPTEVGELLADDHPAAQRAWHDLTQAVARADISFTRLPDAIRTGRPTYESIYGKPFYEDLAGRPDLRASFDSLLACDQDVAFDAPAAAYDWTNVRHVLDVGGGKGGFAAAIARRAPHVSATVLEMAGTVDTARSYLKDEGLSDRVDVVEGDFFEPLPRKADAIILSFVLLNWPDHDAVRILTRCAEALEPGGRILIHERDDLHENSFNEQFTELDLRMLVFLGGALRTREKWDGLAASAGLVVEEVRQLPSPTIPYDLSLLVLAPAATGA
As to the kind of experiment: O-methylation assay, LC-MS/HPLC. The format is biochemical. To be noted: 0.5 mM substrate, 2 mM SAM, 5 μM enzyme, HEPES-NaOH pH 8, 37 °C, 24 h.

In another assay the test system is AthePKS. Put plainly: steady-state kinetics, HPLC of product 1b. To be noted: read-out: apparent Km; 400 μM malonyl-CoA, 50 mM Tris/HCl pH 7.5, 37 °C. The format is biochemical.

In the case of `Cn1c(=O)cc(O)c2ccccc21` [1b, 4-hydroxy-1-methyl-2-quinolone], the “O-methylation assay, LC-MS/HPLC” value on DnrK was “DnrK was still the best‐performing enzyme”.

For the compound `CNc1ccccc1C(=O)SCCNC(=O)CCNC(=O)[C@H](O)C(C)(C)COP(=O)(O)OP(=O)(O)OC[C@H]1O[C@@H](n2cnc3c(N)ncnc32)[C@H](O)[C@@H]1OP(=O)(O)O` [1a, N-methylanthraniloyl-CoA], in the assay with AthePKS, the Michaelis constant (Km) was 42.6 µM.

As to `O=c1cc(O)c2ccccc2[nH]1` [2b], the “O-methylation assay, LC-MS/HPLC” value on DnrK is “it was also active with the other heterocycles 2b, 6b, and 8b”.
